Here are results for one compound from patent US10265329B2, “Altering steroid metabolism for treatment of steroid-dependent disease” (THE CLEVELAND CLINIC FOUNDATION, priority 2015, dated 2019).

The subject of series [1] is C4-2 xenografts. The series is described as follows: C4-2 xenograft progression in orchiectomized mice with DHEA pellet. It is filed as in vivo. The conditions noted are these: 0.5 mmol/kg/d i.p.; compared to Abi acetate and enzalutamide. As for the experimental part: Male NSG mice, 6 to 8 weeks of age were obtained from the Cleveland Clinic Biological Resources Unit facility. All mouse studies were conducted under a protocol approved by the Cleveland Clinic Institutional Animal Care and Use Committee. Sample size was determined based on our prior studies of steroidogenesis inhibition in xenograft models of CRPC. Chang et al., Proc Natl Acad Sci USA., 108:13728-13733 (2011). Criteria for progression were determined based on similar criteria that are utilized for clinical progression. Mice were surgically orchiectomized and implanted with a 5 mg 90-day sustained-release DHEA pellet (Innovative Research of America) to mimic CRPC in the context of human adrenal physiology. Two days later, 10^7 VCaP or C4-2 cells were injected subcutaneously with matrigel. […] Control groups were administered 0.1 mL 5% benzyl alcohol and 95% safflower oil solution via intraperitoneal injection every day. Mice in enzalutamide group were fed with enzalutamide in chow every day (10 mg/Kg/day). Tran et al., Science. 324:787-790 (2009). Treatment was not blinded to the investigator. Tumor volume was measured daily, and time to increase in tumor volume by 20% was determined. […] The significance of the difference between treatment groups was assessed by Kaplan-Meier survival analysis using a log-rank test in SigmaStat 3.5.

The target in series [2] is T1, 3βHSD (Homo sapiens, UniProt P14060).
T1 construct: endogenous in cells; host or cells: LNCaP, VCaP
T1 sequence (P14060 2-373 limits assumed): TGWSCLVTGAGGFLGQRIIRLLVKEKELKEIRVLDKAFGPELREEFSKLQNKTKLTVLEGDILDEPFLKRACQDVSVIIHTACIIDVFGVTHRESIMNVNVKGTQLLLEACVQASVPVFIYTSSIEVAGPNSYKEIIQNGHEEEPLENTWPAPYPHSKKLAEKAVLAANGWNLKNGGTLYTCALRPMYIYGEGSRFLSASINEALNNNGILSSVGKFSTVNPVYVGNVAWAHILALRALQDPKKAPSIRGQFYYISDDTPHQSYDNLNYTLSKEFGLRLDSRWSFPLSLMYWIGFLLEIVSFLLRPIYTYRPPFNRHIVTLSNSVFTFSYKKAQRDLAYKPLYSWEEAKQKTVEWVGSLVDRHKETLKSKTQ
The experiment in a line: Xenograft metabolism: [3H]-DHEA to AD in minced xenograft tumors. The conditions noted are these: LNCaP and VCaP xenografts, 0.1-10 μM. As for the experimental part:
Cell Line Metabolism: Cells were seeded and incubated in 12-well plates with 0.2 million cells/well for ˜24 h and then incubated with a mixture of radioactive ([^3H]-labeled) and non-radioactive androgens (final concentration, 100 nM; ˜1,000,000 cpm/well; PerkinElmer, Waltham, Mass.) at 37° C. Aliquots of medium were collected at the indicated times. Collected medium was treated with 1,000 units of β-glucuronidase (Helix pomatia; Sigma-Aldrich) at 65° C. for 2 h, extracted with 860 μL ethyl acetate:isooctane (1:1), and concentrated under nitrogen gas. Xenograft Metabolism: 10^7 LNCaP or VCaP cells were injected subcutaneously with Matrigel into surgically orchiectomized NSG mice that were implanted with 5 mg 90-day sustained-release DHEA pellets (Innovative Research of American, Sarasota, Fla.). […] Each xenograft was analyzed in triplicate in at least three independent experiments. […]
Dried samples were reconstituted in 50% methanol and injected into the HPLC. […] Alternatively, dried samples were applied to plastic-backed silica gel plates and separated by thin-layer chromatography (TLC) using a mobile phase of 3:1 chloroform:ethyl acetate, followed by exposure of the plates to a phosphorimager screen and quantitated with a Storm model 860 phosphorimager (Applied Biosystems, Foster City, Calif.). […]

The nature of series [3]: Serum deoxycorticosterone at end of xenograft study. Type of series: in vivo. The conditions noted are these: serum from treated mice at the end of the xenograft study. As for the experimental part: Mouse serum collection, derivatization and extraction. […] Louis, Mo.). Steroids were extracted with methyl tert-butyl ether (Sigma Aldrich, St. Louis, Mo.), evaporated under a stream of nitrogen gas and reconstituted in methanol:water (50:50) prior to mass spectrometry analysis. Mouse serum analysis. Samples were analyzed on a Thermo TSQ Quantiva-Prelude SPLC system (Thermo Scientific, Waltham, Mass.) with Aria MX 2.1 and Tracefinder 3.2.368.22 software for instrument controls and quantitation. […] Steroids were ionized by electrospray ionization and in positive ion mode. […] Concentrations were determined using stable isotope dilution analysis.

The structures appear in SMILES notation.

For the compound `C[C@]12CCC(=O)C=C1CC[C@@H]1[C@@H]2CC[C@]2(C)C(c3cccnc3)=CC[C@@H]12` [Compound D4A, 17-(3-Pyridyl)androsta-4,16-dien-3-one], in series [1], the progression-free survival entry is “increased progression-free survival”. In addition, the “potency relative to Abi in blocking conversion from DHEA by 3βHSD to AD” value in series [2] turned out to be 10 fold. For the same compound, the serum deoxycorticosterone result in series [3] is on record as “no detectable increase”.
